# From US7446117B2, “Cox-2 inhibiting pyridine derivatives” (Glaxo Group Limited, priority 2002, dated 2008)
# Molecular target: T1, microsomal h-COX2 (Homo sapiens, UniProt P35354)
# T1 construct: made in house; host or cells: baculovirus infected SF9 cells (microsomal preparation)
# T1 sequence (P35354 18-604): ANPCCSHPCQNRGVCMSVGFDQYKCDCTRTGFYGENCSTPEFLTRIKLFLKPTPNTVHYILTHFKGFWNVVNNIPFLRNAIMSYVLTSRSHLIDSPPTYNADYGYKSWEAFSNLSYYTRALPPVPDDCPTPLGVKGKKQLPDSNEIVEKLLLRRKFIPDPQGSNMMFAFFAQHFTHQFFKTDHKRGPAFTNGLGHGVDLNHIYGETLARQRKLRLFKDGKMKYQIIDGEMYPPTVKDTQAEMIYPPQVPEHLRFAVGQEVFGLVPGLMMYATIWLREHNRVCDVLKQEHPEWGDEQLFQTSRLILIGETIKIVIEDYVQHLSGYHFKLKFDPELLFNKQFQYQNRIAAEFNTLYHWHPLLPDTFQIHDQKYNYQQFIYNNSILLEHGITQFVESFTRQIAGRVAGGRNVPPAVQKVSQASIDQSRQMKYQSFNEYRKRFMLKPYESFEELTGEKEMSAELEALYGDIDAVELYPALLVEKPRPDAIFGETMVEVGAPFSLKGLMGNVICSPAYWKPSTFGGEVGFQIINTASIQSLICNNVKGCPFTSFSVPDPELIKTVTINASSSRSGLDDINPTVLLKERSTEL
# Experiment: Microsomal assay: inhibitory activity against microsomal h-COX2
# Format: biochemical
# Settings: microsomal preparation from baculovirus infected SF9 cells; 1 hour incubation with compound; 0.1 μM arachidonic acid, 10 minutes; PGE2 by EIA; read-out: IC50 values for inhibition of COX-2
# Protocol: Biological Data Microsomal Assay
# Inhibitory activity against microsomal h-COX2 was assessed against a microsomal preparation from baculovirus infected SF9 cells. An aliquot of microsomal preparation was thawed slowly on ice and a 1/40,000 dilution prepared from it into the assay buffer (sterile water, degassed with argon containing 100 mM HEPES (pH 7.4), 10 mM EDTA (pH7.4), 1 mM phenol, 1 mM reduced glutathione, 20 mg/ml gelatin and 0.001 mM Hematin). Once diluted the enzyme solution was then sonicated for 5 seconds (Branson sonicator, setting 4, 1 cm tip) to ensure a homogeneous suspension. 155 μl enzyme solution was then added to each well of a 96-well microtitre plate containing either 5 μl test compound (40× required test concentration) or 5 μl DMSO for controls. Plates were then mixed and incubated at room temperature for 1 hour. Following the incubation period, 40 μl of 0.5 μM arachidonic acid was added to each well to give a final concentration of 0.1 μM. Plates were then mixed and incubated for exactly 10 minutes (room temperature) prior to addition of 25 μl 1M HCl (hydrochloric acid) to each well to stop the reaction. 25 μl of 1M NaOH (sodium hydroxide) was then added to each well to neutralise the solution prior to determination of PGE2 levels by enzyme immunoassay (EIA).
row,SMILES,IC50 [nM]
1,Cc1cc(NCc2ccc(C)nc2)nc(-c2ccc(S(C)(=O)=O)cc2)c1 [Example 98],≤ 500
2,CCN(Cc1ccccc1)c1cc(C)cc(-c2ccc(S(C)(=O)=O)cc2)n1 [Example 128],≤ 500
3,CCc1cc(NCc2ccc(C)cc2)nc(-c2ccc(S(C)(=O)=O)cc2)c1 [Example 129],≤ 500
4,Cc1cc(-c2ccc(S(C)(=O)=O)cc2)nc(NCc2cnn(C)c2)c1C#N [Example 131],≤ 500
5,CCc1cc(OCc2cccnc2C)nc(-c2ccc(S(C)(=O)=O)cc2)c1 [Example 133],≤ 500
6,CCc1cc(OCc2ccc(C)nc2)nc(-c2ccc(S(C)(=O)=O)cc2)c1 [Example 134],≤ 500
7,CCc1cc(OCc2cccc(C)n2)nc(-c2ccc(S(C)(=O)=O)cc2)c1 [Example 135],≤ 500
8,CCc1cc(NCc2cnn(C)c2C)nc(-c2ccc(S(C)(=O)=O)cc2)c1 [Example 139],≤ 500
9,CCc1cc(NCc2nc(C)cs2)nc(-c2ccc(S(C)(=O)=O)cc2)c1 [Example 142],≤ 500
10,CCc1cc(-c2ccc(S(C)(=O)=O)cc2)nc(NCc2cnn(C)c2)c1F [Example 143],≤ 500
11,CCc1cc(NCc2cnn(CF)c2)nc(-c2ccc(S(C)(=O)=O)cc2)c1 [Example 144],≤ 500
12,Cc1cc(-c2ccc(S(C)(=O)=O)cc2)nc(NCc2cnn(C)c2)c1Cl [Example 147],≤ 500
13,CCc1cc(-c2ccc(S(C)(=O)=O)cc2)nc(NCc2ccccc2)c1C#N [Example 148],≤ 500
14,Cc1ccc(COc2nc(-c3ccc(S(C)(=O)=O)cc3)cc(C)c2C#N)cn1 [Example 149],≤ 500
15,CS(=O)(=O)c1ccc(-c2cc(C(F)(F)F)cc(Oc3cccnc3)n2)cc1 [Example 150],≤ 500
16,CC(C)(C)c1cc(NCc2ccccc2)nc(-c2ccc(S(C)(=O)=O)cc2)c1 [Example 151],≤ 500
17,CS(=O)(=O)c1ccc(-c2cc(C(F)(F)F)cc(NCc3ncc[nH]3)n2)cc1 [Example 153],≤ 500
18,CCOc1ccc(Nc2cc(CC)cc(-c3ccc(S(C)(=O)=O)cc3)n2)cc1 [Example 154],≤ 500
19,Cc1cc(OCc2ccc(C)nc2)nc(-c2ccc(S(C)(=O)=O)cc2)c1 [Example 158],≤ 500
20,Cc1ncccc1Nc1cc(C(F)(F)F)cc(-c2ccc(S(C)(=O)=O)cc2)n1 [Example 160],≤ 500
21,Cc1cccc(Nc2cc(C(F)(F)F)cc(-c3ccc(S(C)(=O)=O)cc3)n2)n1 [Example 162],≤ 500
22,Cc1ccc(Nc2cc(C(F)(F)F)cc(-c3ccc(S(C)(=O)=O)cc3)n2)cn1 [Example 163],≤ 500

row,SMILES,IC50 [nM]
1,"CS(=O)(=O)c1ccc(-c2cc(C(F)(F)F)cc(OCc3ccccn3)n2)cc1 [Example 164, 2-[4-(methylsulfonyl)phenyl]-6-[(2-pyridinylmethyl)oxy]-4-(trifluoromethyl)pyridine]",≤ 500
2,Cc1ncccc1Oc1cc(C(F)(F)F)cc(-c2ccc(S(C)(=O)=O)cc2)n1 [Example 165],≤ 500
3,CS(=O)(=O)c1ccc(-c2cc(C(F)(F)F)cc(OCc3cccnc3)n2)cc1 [Example 166],≤ 500
4,Cc1ccc(Oc2cc(C(F)(F)F)cc(-c3ccc(S(C)(=O)=O)cc3)n2)cn1 [Example 167],≤ 500
5,CS(=O)(=O)c1ccc(-c2cc(C(F)(F)F)cc(NCc3cnccn3)n2)cc1 [Example 168],≤ 500
6,CS(=O)(=O)c1ccc(-c2cc(C(F)(F)F)cc(Nc3ccc(F)cc3)n2)cc1 [Example 169],≤ 500
7,CN(Cc1ccco1)c1cc(C(F)(F)F)cc(-c2ccc(S(C)(=O)=O)cc2)n1 [Example 170],≤ 500
8,Cn1cc(CNc2cc(C(F)(F)F)cc(-c3ccc(S(C)(=O)=O)cc3)n2)cn1 [Example 171],≤ 500
9,Cn1ncnc1CNc1cc(C(F)(F)F)cc(-c2ccc(S(C)(=O)=O)cc2)n1 [Example 173],≤ 500
10,CS(=O)(=O)c1ccc(-c2cc(C(F)(F)F)cc(NCc3cccs3)n2)cc1 [Example 174],≤ 500
11,CS(=O)(=O)c1ccc(-c2cc(C(F)(F)F)cc(NCC3CCOCC3)n2)cc1 [Example 175],≤ 500
12,Cc1ccc(Nc2cc(C(F)(F)F)cc(-c3ccc(S(C)(=O)=O)cc3)n2)c(C)n1 [Example 178],≤ 500
13,Cc1cccc(CNc2cc(C(F)(F)F)cc(-c3ccc(S(C)(=O)=O)cc3)n2)n1 [Example 180],≤ 500
14,Cc1ccc(Oc2cc(C(F)(F)F)cc(-c3ccc(S(C)(=O)=O)cc3)n2)c(C)n1 [Example 183],≤ 500
15,Cc1cccc(COc2cc(C(F)(F)F)cc(-c3ccc(S(C)(=O)=O)cc3)n2)n1 [Example 184],≤ 500
16,Cc1ncccc1COc1cc(C(F)(F)F)cc(-c2ccc(S(C)(=O)=O)cc2)n1 [Example 185],≤ 500
17,Cc1ccc(COc2cc(C(F)(F)F)cc(-c3ccc(S(C)(=O)=O)cc3)n2)cn1 [Example 186],≤ 500
18,Cc1nn(C)cc1CNc1cc(C(F)(F)F)cc(-c2ccc(S(C)(=O)=O)cc2)n1 [Example 187],≤ 500
19,Cc1c(CNc2cc(C(F)(F)F)cc(-c3ccc(S(C)(=O)=O)cc3)n2)cnn1C [Example 188],≤ 500
20,Cc1csc(CNc2cc(C(F)(F)F)cc(-c3ccc(S(C)(=O)=O)cc3)n2)n1 [Example 189],≤ 500
21,CS(=O)(=O)c1ccc(-c2cc(C(F)(F)F)cc(Oc3cncc(Cl)c3)n2)cc1 [Example 190],≤ 500
22,CS(=O)(=O)c1ccc(-c2cc(C(F)(F)F)cc(Nc3ccc(Cl)nn3)n2)cc1 [Example 191],≤ 500

# The next lines start with the values.
row,IC50 [nM],SMILES
1,≤ 500,"CCc1cc(NC2CCOCC2)nc(-c2ccc(S(C)(=O)=O)cc2)c1 [Example 89, 4-Ethyl-6-[4-(methylsulfonyl)phenyl]-N-(tetrahydro-2H-pyran-4-yl)pyridine-2-amine]"
2,≤ 500,CS(=O)(=O)c1ccc(-c2cc(CF)cc(NC3CCCCC3)n2)cc1 [Example 92]
3,≤ 500,CCc1cc(NCc2ccccc2)nc(-c2ccc(S(C)(=O)=O)cc2)c1 [Example 93]
4,≤ 500,Cc1cc(N[C@@H](C)c2ccccc2)nc(-c2ccc(S(C)(=O)=O)cc2)c1 [Example 94]
5,≤ 500,Cc1cc(NCc2ccccc2C)nc(-c2ccc(S(C)(=O)=O)cc2)c1 [Example 95]
6,≤ 500,CCc1cc(OCc2ccccc2)nc(-c2ccc(S(C)(=O)=O)cc2)c1 [Example 96]
7,≤ 500,CCc1cc(Nc2ccc(C)nc2)nc(-c2ccc(S(C)(=O)=O)cc2)c1 [Example 99]
8,≤ 500,CCc1cc(OCc2cccnc2)nc(-c2ccc(S(C)(=O)=O)cc2)c1 [Example 101]
9,≤ 500,CCc1cc(NCc2cnccn2)nc(-c2ccc(S(C)(=O)=O)cc2)c1 [Example 103]
10,≤ 500,CS(=O)(=O)c1ccc(-c2cc(CF)cc(NCc3ccccc3)n2)cc1 [Example 104]
11,≤ 500,CCc1cc(Nc2ccc(F)cc2)nc(-c2ccc(S(C)(=O)=O)cc2)c1 [Example 105]
12,≤ 500,CCc1cc(NCc2nccn2C)nc(-c2ccc(S(C)(=O)=O)cc2)c1 [Example 108]
13,≤ 500,CCc1cc(NCc2[nH]cnc2C)nc(-c2ccc(S(C)(=O)=O)cc2)c1 [Example 109]
14,≤ 500,Cc1cc(-c2ccc(S(C)(=O)=O)cc2)nc(N(C)Cc2nccn2C)c1 [Example 110]
15,≤ 500,CCn1ccnc1CNc1cc(C)cc(-c2ccc(S(C)(=O)=O)cc2)n1 [Example 112]
16,≤ 500,Cc1cc(NCc2cn(C)nc2C)nc(-c2ccc(S(C)(=O)=O)cc2)c1 [Example 113]
17,≤ 500,Cc1cc(NCc2cnn(C)c2C)nc(-c2ccc(S(C)(=O)=O)cc2)c1 [Example 114]
18,≤ 500,CCc1cc(NCc2cnn(C)c2)nc(-c2ccc(S(C)(=O)=O)cc2)c1 [Example 115]
19,≤ 500,CCc1cc(OCc2ccnn2C)nc(-c2ccc(S(C)(=O)=O)cc2)c1 [Example 116]
20,≤ 500,CCc1cc(NCc2cccs2)nc(-c2ccc(S(C)(=O)=O)cc2)c1 [Example 120]
21,≤ 500,Cc1cc(NCc2cc(C)ns2)nc(-c2ccc(S(C)(=O)=O)cc2)c1 [Example 123]
22,≤ 500,Cc1cc(NCc2nc(C)cs2)nc(-c2ccc(S(C)(=O)=O)cc2)c1 [Example 124]
23,≤ 500,Cc1cc(NCc2csnc2C)nc(-c2ccc(S(C)(=O)=O)cc2)c1 [Example 125]
24,≤ 500,Cc1cc(NCc2cnn(CF)c2)nc(-c2ccc(S(C)(=O)=O)cc2)c1 [Example 126]
